Results: publication PMC3179953, “In Mycoplasma hominis the OppA-mediated cytoadhesion depends on its ATPase activity” (BMC Microbiology, 2011)

Target: T1, OppA^WT (OppA, P100), wild type purified from M. hominis (Metamycoplasma hominis, UniProt Q49551)
T1 construct: native lipoprotein, solubilised with N-dodecylmaltoside from membranes and isolated with sepharose-coupled antibody DC10; phosphorylated
Test: ammonium molybdate ATPase assay, inhibitor preincubated […] min
Format: biochemical
Conditions: 200 μM inhibitor

T1 sequence (Q49551 entry or part of it): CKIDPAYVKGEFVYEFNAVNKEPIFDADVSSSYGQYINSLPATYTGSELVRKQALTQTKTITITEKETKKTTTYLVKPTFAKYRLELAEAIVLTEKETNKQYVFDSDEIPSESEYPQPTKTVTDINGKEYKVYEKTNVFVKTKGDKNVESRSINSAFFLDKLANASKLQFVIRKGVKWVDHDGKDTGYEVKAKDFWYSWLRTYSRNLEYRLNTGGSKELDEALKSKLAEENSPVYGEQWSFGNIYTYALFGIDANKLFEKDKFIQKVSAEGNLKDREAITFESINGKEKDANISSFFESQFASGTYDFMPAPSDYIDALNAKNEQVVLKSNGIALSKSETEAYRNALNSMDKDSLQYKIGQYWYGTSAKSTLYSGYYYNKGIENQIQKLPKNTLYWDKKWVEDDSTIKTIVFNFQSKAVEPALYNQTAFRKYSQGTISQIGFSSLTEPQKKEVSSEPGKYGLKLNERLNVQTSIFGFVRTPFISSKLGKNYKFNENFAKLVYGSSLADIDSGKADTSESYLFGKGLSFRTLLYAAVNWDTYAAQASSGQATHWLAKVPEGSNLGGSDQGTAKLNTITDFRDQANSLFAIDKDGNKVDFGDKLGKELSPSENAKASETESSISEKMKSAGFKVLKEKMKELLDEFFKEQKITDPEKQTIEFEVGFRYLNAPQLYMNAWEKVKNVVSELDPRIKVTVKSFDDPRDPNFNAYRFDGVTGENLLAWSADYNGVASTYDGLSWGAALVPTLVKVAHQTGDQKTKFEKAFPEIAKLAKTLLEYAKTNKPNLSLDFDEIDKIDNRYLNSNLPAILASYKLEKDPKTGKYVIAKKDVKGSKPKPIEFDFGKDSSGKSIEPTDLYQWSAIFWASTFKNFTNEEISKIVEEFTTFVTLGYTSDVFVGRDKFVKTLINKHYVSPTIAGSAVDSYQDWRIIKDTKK

Compound: O=S(=O)(O)c1cc(N=C=S)ccc1/C=C/c1ccc(N=C=S)cc1S(=O)(=O)O [DIDS, 4,4'-diisothiocyano-2,2'-stilbene-disulfonic acid]
- relative ATPase activity at 200 μM: OppA was neither able to hydrolyze ATP (Figure 3A)
